Test results from the kinase profiling compilation of Christmann-Franck et al. (2016).

Key:
Experiment in all cases: KINOMEscan competition binding
Conditions in all cases: compound 0.5 µM
TLK2 (human) = TLK2 (human) (UniProt Q86UE8)
MAPK3 (human) = MAPK3 (human) (UniProt P27361)
PRKD2 (human) = PRKD2 (human) (UniProt Q9BZL6)
RPS6KB1 (human) = RPS6KB1 (human) (UniProt P23443)
CLK1 (human) = CLK1 (human) (UniProt P49759)
[1] = test system: KIT (human), P10721 [V559D/T670I]
GRK7 (human) = GRK7 (human) (UniProt Q8WTQ7)
IKBKB (human) = IKBKB (human) (UniProt O14920)
NEK7 (human) = NEK7 (human) (UniProt Q8TDX7)
MAP3K12 (human) = MAP3K12 (human) (UniProt Q12852)
CAMK2B (human) = CAMK2B (human) (UniProt Q13554)
PLK2 (human) = PLK2 (human) (UniProt Q9NYY3)
[2] = test system: FLT3 (human), P36888 [K663Q]
NEK2 (human) = NEK2 (human) (UniProt P51955)
MAP3K4 (human) = MAP3K4 (human) (UniProt Q9Y6R4)
CSNK2A1 (human) = CSNK2A1 (human) (UniProt P68400)
[3] = biological target: JAK1 JH1 catalytic (human) (UniProt P23458)
TESK1 (human) = TESK1 (human) (UniProt Q15569)
DCLK2 (human) = DCLK2 (human) (UniProt Q8N568)
TEK (human) = TEK (human) (UniProt Q02763)
MYLK (human) = MYLK (human) (UniProt Q15746)
STK35 (human) = STK35 (human) (UniProt Q8TDR2)
EPHB6 (human) = EPHB6 (human) (UniProt O15197)
PIM1 (human) = PIM1 (human) (UniProt P11309)
MAP4K2 (human) = MAP4K2 (human) (UniProt Q12851)
MUSK (human) = MUSK (human) (UniProt O15146)
[4] = test system: KIT (human), P10721 [A829P]
PIK3CA (human) = PIK3CA (human) (UniProt P42336)
[5] = biological target: JAK2 JH1 catalytic (human) (UniProt O60674)
TGFBR1 (human) = TGFBR1 (human) (UniProt P36897)
PIM3 (human) = PIM3 (human) (UniProt Q86V86)
FLT3 (human) = FLT3 (human) (UniProt P36888)
[6] = test system: KIT (human), P10721 [D816V]
ERBB3 (human) = ERBB3 (human) (UniProt P21860)
TYRO3 (human) = TYRO3 (human) (UniProt Q06418)
ANKK1 (human) = ANKK1 (human) (UniProt Q8NFD2)
PRKX (human) = PRKX (human) (UniProt P51817)
CPK1 (P.falciparum) = test system: CPK1 (P.falciparum)
STK24 (human) = STK24 (human) (UniProt Q9Y6E0)

Chain of KIT (human), P10721 [D816V] (P10721 whole entry D816V, looked up): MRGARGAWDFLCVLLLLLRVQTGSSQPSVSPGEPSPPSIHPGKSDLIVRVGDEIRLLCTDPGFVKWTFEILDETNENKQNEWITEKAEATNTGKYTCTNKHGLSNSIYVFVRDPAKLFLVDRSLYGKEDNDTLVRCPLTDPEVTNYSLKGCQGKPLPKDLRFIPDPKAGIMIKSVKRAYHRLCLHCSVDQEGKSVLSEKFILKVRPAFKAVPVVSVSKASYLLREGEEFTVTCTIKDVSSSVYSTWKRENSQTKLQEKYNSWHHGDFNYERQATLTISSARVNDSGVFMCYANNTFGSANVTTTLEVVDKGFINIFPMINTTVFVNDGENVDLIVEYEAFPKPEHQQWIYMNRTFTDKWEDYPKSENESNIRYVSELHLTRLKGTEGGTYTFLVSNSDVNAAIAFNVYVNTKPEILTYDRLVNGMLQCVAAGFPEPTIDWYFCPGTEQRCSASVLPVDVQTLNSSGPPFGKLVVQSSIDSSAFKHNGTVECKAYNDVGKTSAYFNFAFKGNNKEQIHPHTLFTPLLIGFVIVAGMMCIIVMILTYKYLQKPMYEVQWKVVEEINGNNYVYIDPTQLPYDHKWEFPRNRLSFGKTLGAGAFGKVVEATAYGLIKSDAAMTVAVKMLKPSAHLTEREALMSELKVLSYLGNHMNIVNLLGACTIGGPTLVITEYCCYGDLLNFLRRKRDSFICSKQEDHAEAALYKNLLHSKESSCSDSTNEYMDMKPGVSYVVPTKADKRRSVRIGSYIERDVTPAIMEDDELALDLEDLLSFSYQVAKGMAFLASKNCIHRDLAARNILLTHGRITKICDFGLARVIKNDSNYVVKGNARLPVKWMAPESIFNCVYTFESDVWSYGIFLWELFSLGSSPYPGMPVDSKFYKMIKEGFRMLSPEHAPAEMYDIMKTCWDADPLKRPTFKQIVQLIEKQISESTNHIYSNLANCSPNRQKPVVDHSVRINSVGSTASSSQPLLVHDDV
Chain of MAPK3 (human) (P27361 whole entry, looked up): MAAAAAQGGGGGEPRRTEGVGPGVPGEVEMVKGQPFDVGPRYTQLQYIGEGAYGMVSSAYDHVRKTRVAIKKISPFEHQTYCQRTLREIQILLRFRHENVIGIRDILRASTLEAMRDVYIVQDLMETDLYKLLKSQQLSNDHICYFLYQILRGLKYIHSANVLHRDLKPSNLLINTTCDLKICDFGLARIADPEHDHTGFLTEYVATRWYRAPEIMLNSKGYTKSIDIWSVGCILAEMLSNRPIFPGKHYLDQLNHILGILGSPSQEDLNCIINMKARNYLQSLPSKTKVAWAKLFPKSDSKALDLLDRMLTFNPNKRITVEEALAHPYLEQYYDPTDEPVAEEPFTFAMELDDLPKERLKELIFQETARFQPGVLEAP
Chain of JAK1 JH1 catalytic (human) (P23458 whole entry, looked up): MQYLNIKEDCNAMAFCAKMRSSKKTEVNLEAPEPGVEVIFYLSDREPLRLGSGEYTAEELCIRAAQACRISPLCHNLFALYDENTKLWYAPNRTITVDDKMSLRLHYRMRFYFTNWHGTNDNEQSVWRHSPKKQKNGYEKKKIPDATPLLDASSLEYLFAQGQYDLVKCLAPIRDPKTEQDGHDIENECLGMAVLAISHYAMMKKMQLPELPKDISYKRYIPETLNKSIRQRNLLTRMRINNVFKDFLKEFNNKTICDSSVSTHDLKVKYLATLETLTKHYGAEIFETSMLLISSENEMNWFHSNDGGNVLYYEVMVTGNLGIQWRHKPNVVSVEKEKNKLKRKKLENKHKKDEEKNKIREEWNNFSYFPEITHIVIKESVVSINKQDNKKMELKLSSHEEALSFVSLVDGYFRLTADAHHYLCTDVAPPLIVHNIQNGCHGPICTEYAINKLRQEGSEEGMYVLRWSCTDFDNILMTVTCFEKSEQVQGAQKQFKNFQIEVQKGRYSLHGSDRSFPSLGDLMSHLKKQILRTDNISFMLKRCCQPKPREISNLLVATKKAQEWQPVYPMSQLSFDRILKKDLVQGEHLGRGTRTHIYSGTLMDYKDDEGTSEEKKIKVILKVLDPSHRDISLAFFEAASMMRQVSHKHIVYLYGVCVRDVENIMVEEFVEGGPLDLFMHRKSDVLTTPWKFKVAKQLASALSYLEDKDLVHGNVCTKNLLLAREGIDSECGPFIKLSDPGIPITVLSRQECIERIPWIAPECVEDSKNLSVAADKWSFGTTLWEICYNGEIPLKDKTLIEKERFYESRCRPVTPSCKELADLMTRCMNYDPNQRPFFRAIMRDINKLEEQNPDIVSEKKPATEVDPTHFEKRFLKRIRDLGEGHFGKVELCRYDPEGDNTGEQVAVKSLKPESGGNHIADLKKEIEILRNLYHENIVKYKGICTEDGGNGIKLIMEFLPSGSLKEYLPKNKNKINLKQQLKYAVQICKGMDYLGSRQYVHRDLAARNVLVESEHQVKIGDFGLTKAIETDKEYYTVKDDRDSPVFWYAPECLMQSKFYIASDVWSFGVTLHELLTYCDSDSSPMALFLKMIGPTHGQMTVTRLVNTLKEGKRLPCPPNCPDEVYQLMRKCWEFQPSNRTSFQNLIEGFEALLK
Chain of JAK2 JH1 catalytic (human) (O60674 whole entry, looked up): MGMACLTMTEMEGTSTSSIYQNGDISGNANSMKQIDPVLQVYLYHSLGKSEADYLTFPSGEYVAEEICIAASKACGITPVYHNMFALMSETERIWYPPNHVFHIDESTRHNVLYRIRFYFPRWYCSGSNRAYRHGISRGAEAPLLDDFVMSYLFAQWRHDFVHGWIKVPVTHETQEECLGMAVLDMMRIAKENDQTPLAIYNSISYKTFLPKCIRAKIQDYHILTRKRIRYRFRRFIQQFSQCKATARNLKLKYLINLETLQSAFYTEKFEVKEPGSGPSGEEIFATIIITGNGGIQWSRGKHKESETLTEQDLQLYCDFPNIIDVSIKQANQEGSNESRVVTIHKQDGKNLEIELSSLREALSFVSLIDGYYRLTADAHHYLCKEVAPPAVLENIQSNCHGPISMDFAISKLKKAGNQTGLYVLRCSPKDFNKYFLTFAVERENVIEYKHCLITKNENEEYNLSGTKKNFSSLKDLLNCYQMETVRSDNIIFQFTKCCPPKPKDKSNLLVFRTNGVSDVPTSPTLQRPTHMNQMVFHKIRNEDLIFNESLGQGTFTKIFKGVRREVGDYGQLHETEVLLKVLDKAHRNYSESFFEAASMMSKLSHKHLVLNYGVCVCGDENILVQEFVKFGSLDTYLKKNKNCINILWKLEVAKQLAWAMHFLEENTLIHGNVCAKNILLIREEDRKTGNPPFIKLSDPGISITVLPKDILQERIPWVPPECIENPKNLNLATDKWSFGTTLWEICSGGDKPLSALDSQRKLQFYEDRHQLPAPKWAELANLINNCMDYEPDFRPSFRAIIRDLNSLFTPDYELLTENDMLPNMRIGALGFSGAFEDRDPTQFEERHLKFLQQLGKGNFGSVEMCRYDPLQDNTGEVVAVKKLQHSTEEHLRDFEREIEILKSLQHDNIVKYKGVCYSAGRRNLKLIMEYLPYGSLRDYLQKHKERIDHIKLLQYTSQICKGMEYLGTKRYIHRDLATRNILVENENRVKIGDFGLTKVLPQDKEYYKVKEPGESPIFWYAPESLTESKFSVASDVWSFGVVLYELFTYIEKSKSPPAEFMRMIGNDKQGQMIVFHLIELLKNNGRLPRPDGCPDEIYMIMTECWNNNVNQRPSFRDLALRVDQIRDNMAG
Chain of EPHB6 (human) (O15197 whole entry, looked up): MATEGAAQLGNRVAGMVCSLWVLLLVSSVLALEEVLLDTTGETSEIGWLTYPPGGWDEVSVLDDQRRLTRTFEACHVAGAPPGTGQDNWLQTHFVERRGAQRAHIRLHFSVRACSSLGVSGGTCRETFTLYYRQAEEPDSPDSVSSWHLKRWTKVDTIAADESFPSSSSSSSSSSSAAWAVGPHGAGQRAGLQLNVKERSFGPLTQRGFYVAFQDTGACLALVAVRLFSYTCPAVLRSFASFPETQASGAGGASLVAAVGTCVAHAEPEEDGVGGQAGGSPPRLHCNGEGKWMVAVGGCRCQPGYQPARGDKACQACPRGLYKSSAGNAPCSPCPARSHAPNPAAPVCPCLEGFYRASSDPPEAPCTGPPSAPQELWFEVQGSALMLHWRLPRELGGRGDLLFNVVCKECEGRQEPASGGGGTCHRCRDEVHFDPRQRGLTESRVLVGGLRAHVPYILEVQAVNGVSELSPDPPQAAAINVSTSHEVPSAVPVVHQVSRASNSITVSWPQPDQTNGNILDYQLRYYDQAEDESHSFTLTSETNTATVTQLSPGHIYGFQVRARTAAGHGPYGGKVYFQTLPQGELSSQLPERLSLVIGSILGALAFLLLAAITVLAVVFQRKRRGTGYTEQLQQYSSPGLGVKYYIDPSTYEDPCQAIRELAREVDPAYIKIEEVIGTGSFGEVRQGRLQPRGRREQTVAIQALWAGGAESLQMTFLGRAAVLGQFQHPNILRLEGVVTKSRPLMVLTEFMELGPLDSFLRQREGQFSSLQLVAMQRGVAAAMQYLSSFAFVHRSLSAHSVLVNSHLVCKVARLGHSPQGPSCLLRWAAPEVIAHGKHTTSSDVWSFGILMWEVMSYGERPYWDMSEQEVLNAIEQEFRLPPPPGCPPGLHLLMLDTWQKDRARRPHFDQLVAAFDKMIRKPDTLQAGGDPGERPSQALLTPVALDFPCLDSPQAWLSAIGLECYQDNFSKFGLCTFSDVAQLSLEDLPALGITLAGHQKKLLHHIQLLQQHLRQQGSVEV
Chain of PRKX (human) (P51817 whole entry, looked up): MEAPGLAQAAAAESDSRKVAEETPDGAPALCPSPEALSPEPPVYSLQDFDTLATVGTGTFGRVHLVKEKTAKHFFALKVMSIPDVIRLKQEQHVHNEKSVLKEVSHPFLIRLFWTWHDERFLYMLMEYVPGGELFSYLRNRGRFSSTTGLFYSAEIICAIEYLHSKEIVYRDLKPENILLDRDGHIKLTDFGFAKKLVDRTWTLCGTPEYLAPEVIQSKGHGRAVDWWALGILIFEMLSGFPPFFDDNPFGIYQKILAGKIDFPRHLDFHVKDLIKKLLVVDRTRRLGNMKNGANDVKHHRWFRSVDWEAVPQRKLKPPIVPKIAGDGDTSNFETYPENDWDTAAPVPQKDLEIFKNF
Chain of KIT (human), P10721 [V559D/T670I] (P10721 whole entry V559D/T670I, looked up): as the sequence (P10721 whole entry D816V, looked up) above, with V559D, T670I, V816D counted along it

`Cn1c2ccccc2c2c3c(c4c5ccccc5n(CCC#N)c4c21)CNC3=O` was tested, and the kinase still bound, per cent of control (TLK2 (human)) was 88%, the kinase still bound, per cent of control (MAPK3 (human)) was 96% and the kinase still bound, per cent of control (PRKD2 (human)) was 4.8%. For the same compound, the kinase still bound, per cent of control (RPS6KB1 (human)) was 23%, the kinase still bound, per cent of control (CLK1 (human)) was 16% and the kinase still bound, per cent of control [1] was 57%. The kinase still bound, per cent of control (GRK7 (human)) was 10%, the kinase still bound, per cent of control (IKBKB (human)) was 50% and the kinase still bound, per cent of control (NEK7 (human)) was 100%. For the same compound, the kinase still bound, per cent of control (MAP3K12 (human)) was 89%, the kinase still bound, per cent of control (CAMK2B (human)) was 63% and the kinase still bound, per cent of control (PLK2 (human)) was 100%. The kinase still bound, per cent of control [2] was 0.95%, the kinase still bound, per cent of control (NEK2 (human)) was 100% and the kinase still bound, per cent of control (MAP3K4 (human)) was 99%. For the same compound, the kinase still bound, per cent of control (CSNK2A1 (human)) was 80%, the kinase still bound, per cent of control [3] was 10% and the kinase still bound, per cent of control (TESK1 (human)) was 43%. It also gave a kinase still bound, per cent of control (DCLK2 (human)) of 100%, a kinase still bound, per cent of control (TEK (human)) of 99% and a kinase still bound, per cent of control (MYLK (human)) of 56%. For the same compound, the kinase still bound, per cent of control (STK35 (human)) was 73%, the kinase still bound, per cent of control (EPHB6 (human)) was 50% and the kinase still bound, per cent of control (PIM1 (human)) was 32%. The kinase still bound, per cent of control (MAP4K2 (human)) was 1.1%, the kinase still bound, per cent of control (MUSK (human)) was 100% and the kinase still bound, per cent of control [4] was 54%. It also gave a kinase still bound, per cent of control (PIK3CA (human)) of 100%, a kinase still bound, per cent of control [5] of 0.2% and a kinase still bound, per cent of control (TGFBR1 (human)) of 79%. The kinase still bound, per cent of control (PIM3 (human)) was 8.9%, the kinase still bound, per cent of control (FLT3 (human)) was 1.4% and the kinase still bound, per cent of control [6] was 2%. The kinase still bound, per cent of control (ERBB3 (human)) was 94%, the kinase still bound, per cent of control (TYRO3 (human)) was 78% and the kinase still bound, per cent of control (ANKK1 (human)) was 70%. For the same compound, the kinase still bound, per cent of control (PRKX (human)) was 53%, the kinase still bound, per cent of control (CPK1 (P.falciparum)) was 35% and the kinase still bound, per cent of control (STK24 (human)) was 92%.
